Results reported in PMC12892976, “Alkylation-based optimization of antifungal FPPS inhibitors yields a potent, broad-spectrum lipophilic zoledronate derivative” (mBio, 2025).
Values after ≈ are worked out from the molar mass of the structure shown.

Legend:
Aspergillus udagawae = assay: checkerboard drug interaction (FICI, MICc); type: cell-based;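 further: simplified diagonal checkerboard screen pairing antifungals with FPPS inhibitors, FICI calculated using the Loewe additivity model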
Procedure: (§1) Drug interactions between antifungals and FPPS inhibitors were investigated using a simplified checkerboard diagonal screening method ([45]). […] FICIs were determined according to the Loewe additivity model ([17]).

Epidermophyton floccosum = assay: checkerboard drug interaction (FICI, MICc);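 further: simplified diagonal checkerboard screen pairing antifungals with FPPS inhibitors, FICI calculated under the Loewe additivity model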
Procedure: as §1

Scedosporium apiospermum [1] = assay: checkerboard drug interaction (FICI, MICc); type: cell-based;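 further: simplified diagonal checkerboard screen of antifungal plus FPPS inhibitor pairs, with FICI computed under the Loewe additivity model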
Procedure: as §1

Fusarium solani [2] = assay: MIC broth microdilution (CLSI); conditions: Fusarium solani 04-16-056-1862
Procedure: (§2) Antifungal susceptibility was determined by broth microdilution according to the CLSI guidelines described in M27-Ed4 ([16]).

Rhizopus oryzae = assay: MIC broth microdilution (CLSI); type: cell-based; conditions: Rhizopus oryzae 04-14-364-1703
Procedure: as §2

Cryptococcus gattii [3] = assay: MIC broth microdilution (CLSI); type: cell-based; conditions: Cryptococcus gattii PNG27
Procedure: as §2

Aspergillus parafelis = assay: checkerboard drug interaction (FICI, MICc);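 further: simplified diagonal checkerboard screen pairing antifungals with FPPS inhibitors, FICI calculated under the Loewe additivity model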
Procedure: as §1

[4] = test system: Cryptococcus deneoformans; assay: checkerboard drug interaction (FICI, MICc); type: cell-based;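 further: simplified diagonal checkerboard screen pairing antifungals with FPPS inhibitors, FICI calculated under the Loewe additivity model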
Procedure: as §1

Scedosporium apiospermum [5] = assay: MIC broth microdilution (CLSI); type: cell-based; conditions: Scedosporium apiospermum 04-16-022-2268
Procedure: as §2

Nannizzia gypsea = assay: MIC broth microdilution (CLSI); type: cell-based; conditions: Nannizzia gypsea R-131
Procedure: as §2

Cryptococcus gattii [6] = assay: checkerboard drug interaction (FICI, MICc); type: cell-based;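 further: simplified diagonal checkerboard screen pairing antifungals with FPPS inhibitors, FICI computed under the Loewe additivity model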
Procedure: as §1

Candida parapsilosis = assay: MIC broth microdilution (CLSI); type: cell-based; conditions: Candida parapsilosis ATCC 22018
Procedure: (§3) Antifungal susceptibility was determined by broth microdilution according to the CLSI guidelines described in M27-Ed4 ([16]). […] MFC was determined by back-plating drug-treated cultures from MIC broths onto SDA plates. The MFC was defined as the lowest concentration from which no colonies could be cultured.

Mucor circinelloides = assay: MIC broth microdilution (CLSI); type: cell-based; conditions: Mucor circinelloides 80-14-240-5007
Procedure: as §2

Fusarium solani [7] = assay: checkerboard drug interaction (FICI, MICc); type: cell-based;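 further: simplified diagonal checkerboard screen pairing antifungals with FPPS inhibitors, FICI derived under the Loewe additivity model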
Procedure: as §1

Aspergillus lentulus = assay: checkerboard drug interaction (FICI, MICc); type: cell-based;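 further: simplified diagonal checkerboard screen pairing antifungals with FPPS inhibitors, with the interaction index calculated under the Loewe additivity model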
Procedure: as §1

[8] = test system: Trichophyton interdigitale; assay: checkerboard drug interaction (FICI, MICc);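 further: simplified diagonal checkerboard screen pairing antifungals with FPPS inhibitors, FICI values calculated under the Loewe additivity model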
Procedure: as §1

Pichia kudriavzevii = assay: MIC broth microdilution (CLSI); type: cell-based; conditions: Pichia kudriavzavii ATCC 6258
Procedure: as §3

Structure (SMILES): O=P(O)(O)C(O)(Cn1ccnc1)P(=O)(O)O [ZOL, zoledronate]
- FICI (Aspergillus udagawae; VOR:ZOL): 1
- bisphosphonate MICc (Aspergillus udagawae; ZOL with 5FC): 512
- bisphosphonate MICc (Aspergillus udagawae; ZOL with AMB): 128
- bisphosphonate MICc (Aspergillus udagawae; ZOL with CAS): 256
- bisphosphonate MICc (Aspergillus udagawae; ZOL with FLC): 2
- bisphosphonate MICc (Aspergillus udagawae; ZOL with ITR): 128
- bisphosphonate MICc (Aspergillus udagawae; ZOL with KET): 128
- bisphosphonate MICc (Aspergillus udagawae; ZOL with VOR): 128
- FICI (Epidermophyton floccosum; 5FC:ZOL): 1.5
- FICI (Epidermophyton floccosum; AMB:ZOL): 1
- FICI (Epidermophyton floccosum; CAS:ZOL): 2.17
- FICI (Epidermophyton floccosum; FLC:ZOL): 0.63
- FICI (Epidermophyton floccosum; ITR:ZOL): 0.63
- FICI (Epidermophyton floccosum; KET:ZOL): 0.5
- FICI (Epidermophyton floccosum; VOR:ZOL): 1.13
- bisphosphonate MICc (Epidermophyton floccosum; ZOL with 5FC): 64
- bisphosphonate MICc (Epidermophyton floccosum; ZOL with AMB): 32
- bisphosphonate MICc (Epidermophyton floccosum; ZOL with CAS): 16
- bisphosphonate MICc (Epidermophyton floccosum; ZOL with FLC): 8
- bisphosphonate MICc (Epidermophyton floccosum; ZOL with ITR): 8
- bisphosphonate MICc (Epidermophyton floccosum; ZOL with KET): 16
- bisphosphonate MICc (Epidermophyton floccosum; ZOL with VOR): 8
- FICI (Scedosporium apiospermum [1]; 5FC:ZOL): 3
- FICI (Scedosporium apiospermum [1]; AMB:ZOL): 1.5
- FICI (Scedosporium apiospermum [1]; CAS:ZOL): ≥4
- FICI (Scedosporium apiospermum [1]; FLC:ZOL): 0.63
- FICI (Scedosporium apiospermum [1]; ITR:ZOL): 0.56
- FICI (Scedosporium apiospermum [1]; KET:ZOL): 0.63
- FICI (Scedosporium apiospermum [1]; VOR:ZOL): 1.5
- bisphosphonate MICc (Scedosporium apiospermum [1]; ZOL with 5FC): 256
- bisphosphonate MICc (Scedosporium apiospermum [1]; ZOL with AMB): 128
- bisphosphonate MICc (Scedosporium apiospermum [1]; ZOL with CAS): 512
- bisphosphonate MICc (Scedosporium apiospermum [1]; ZOL with FLC): 32
- bisphosphonate MICc (Scedosporium apiospermum [1]; ZOL with ITR): 16
- bisphosphonate MICc (Scedosporium apiospermum [1]; ZOL with KET): 32
- bisphosphonate MICc (Scedosporium apiospermum [1]; ZOL with VOR): 128
- MIC / MEC (Fusarium solani [2]): 256 µg/mL (≈ 941 µM)
- MIC / MEC (Rhizopus oryzae): >256 µg/mL
- MIC / MEC (Cryptococcus gattii [3]): 128 µg/mL (≈ 470 µM)
- FICI (Aspergillus parafelis; 5FC:ZOL): 2
- FICI (Aspergillus parafelis; AMB:ZOL): 1.13
- FICI (Aspergillus parafelis; CAS:ZOL): 0.56
- FICI (Aspergillus parafelis; FLC:ZOL): 0.5
- FICI (Aspergillus parafelis; ITR:ZOL): 1.06
- FICI (Aspergillus parafelis; KET:ZOL): 2
- FICI (Aspergillus parafelis; VOR:ZOL): 0.5
- bisphosphonate MICc (Aspergillus parafelis; ZOL with 5FC): 512
- bisphosphonate MICc (Aspergillus parafelis; ZOL with AMB): 64
- bisphosphonate MICc (Aspergillus parafelis; ZOL with CAS): 32
- bisphosphonate MICc (Aspergillus parafelis; ZOL with FLC): 2
- bisphosphonate MICc (Aspergillus parafelis; ZOL with ITR): 32
- bisphosphonate MICc (Aspergillus parafelis; ZOL with KET): 512
- bisphosphonate MICc (Aspergillus parafelis; ZOL with VOR): 128
- FICI ([4]; 5FC:ZOL): 0.38
- FICI ([4]; AMB:ZOL): 0.63
- FICI ([4]; CAS:ZOL): 1
- FICI ([4]; FLC:ZOL): 0.5
- FICI ([4]; ITR:ZOL): 2.09
- FICI ([4]; KET:ZOL): 0.37
- FICI ([4]; VOR:ZOL): 1.54
- bisphosphonate MICc ([4]; ZOL with 5FC): 16
- bisphosphonate MICc ([4]; ZOL with AMB): 16
- bisphosphonate MICc ([4]; ZOL with CAS): 64
- bisphosphonate MICc ([4]; ZOL with FLC): 32
- bisphosphonate MICc ([4]; ZOL with ITR): 1
- bisphosphonate MICc ([4]; ZOL with KET): 16
- bisphosphonate MICc ([4]; ZOL with VOR): 64
- MIC / MEC (Scedosporium apiospermum [5]): 256 µg/mL (≈ 941 µM)
- MIC / MEC (Nannizzia gypsea): 256 µg/mL (≈ 941 µM)
- FICI (Cryptococcus gattii [6]; 5FC:ZOL): 1.25
- FICI (Cryptococcus gattii [6]; AMB:ZOL): 1.5
- FICI (Cryptococcus gattii [6]; CAS:ZOL): ≥4
- FICI (Cryptococcus gattii [6]; FLC:ZOL): 0.38
- FICI (Cryptococcus gattii [6]; ITR:ZOL): 0.63
- FICI (Cryptococcus gattii [6]; KET:ZOL): 1.03
- FICI (Cryptococcus gattii [6]; VOR:ZOL): 1.25
- bisphosphonate MICc (Cryptococcus gattii [6]; ZOL with 5FC): 128
- bisphosphonate MICc (Cryptococcus gattii [6]; ZOL with AMB): 64
- bisphosphonate MICc (Cryptococcus gattii [6]; ZOL with CAS): 256
- bisphosphonate MICc (Cryptococcus gattii [6]; ZOL with FLC): 32
- bisphosphonate MICc (Cryptococcus gattii [6]; ZOL with ITR): 16
- bisphosphonate MICc (Cryptococcus gattii [6]; ZOL with KET): 4
- bisphosphonate MICc (Cryptococcus gattii [6]; ZOL with VOR): 32
- MIC / MEC (Candida parapsilosis): 128 µg/mL (≈ 470 µM)
- MIC / MEC (Mucor circinelloides): 64 µg/mL (≈ 235 µM)
- FICI (Fusarium solani [7]; 5FC:ZOL): 3
- FICI (Fusarium solani [7]; AMB:ZOL): 0.75
- FICI (Fusarium solani [7]; CAS:ZOL): ≥4
- FICI (Fusarium solani [7]; FLC:ZOL): 0.75
- FICI (Fusarium solani [7]; ITR:ZOL): 0.38
- FICI (Fusarium solani [7]; KET:ZOL): 0.75
- FICI (Fusarium solani [7]; VOR:ZOL): 1.03
- bisphosphonate MICc (Fusarium solani [7]; ZOL with 5FC): 256
- bisphosphonate MICc (Fusarium solani [7]; ZOL with AMB): 64
- bisphosphonate MICc (Fusarium solani [7]; ZOL with CAS): 256
- bisphosphonate MICc (Fusarium solani [7]; ZOL with FLC): 128
- bisphosphonate MICc (Fusarium solani [7]; ZOL with ITR): 32
- bisphosphonate MICc (Fusarium solani [7]; ZOL with KET): 128
- bisphosphonate MICc (Fusarium solani [7]; ZOL with VOR): 8
- FICI (Aspergillus lentulus; 5FC:ZOL): 3
- FICI (Aspergillus lentulus; AMB:ZOL): 0.56
- FICI (Aspergillus lentulus; CAS:ZOL): 0.63
- FICI (Aspergillus lentulus; FLC:ZOL): 0.25
- FICI (Aspergillus lentulus; ITR:ZOL): 0.31
- FICI (Aspergillus lentulus; KET:ZOL): 0.38
- FICI (Aspergillus lentulus; VOR:ZOL): 0.63
- bisphosphonate MICc (Aspergillus lentulus; ZOL with 5FC): 512
- bisphosphonate MICc (Aspergillus lentulus; ZOL with AMB): 32
- bisphosphonate MICc (Aspergillus lentulus; ZOL with CAS): 64
- bisphosphonate MICc (Aspergillus lentulus; ZOL with FLC): 2
- bisphosphonate MICc (Aspergillus lentulus; ZOL with ITR): 32
- bisphosphonate MICc (Aspergillus lentulus; ZOL with KET): 64
- bisphosphonate MICc (Aspergillus lentulus; ZOL with VOR): 256
- FICI ([8]; 5FC:ZOL): 2
- FICI ([8]; AMB:ZOL): 3
- FICI ([8]; CAS:ZOL): 1.25
- FICI ([8]; FLC:ZOL): 0.5
- FICI ([8]; ITR:ZOL): 0.27
- FICI ([8]; KET:ZOL): 0.5
- FICI ([8]; VOR:ZOL): 0.38
- bisphosphonate MICc ([8]; ZOL with 5FC): 256
- bisphosphonate MICc ([8]; ZOL with AMB): 256
- bisphosphonate MICc ([8]; ZOL with CAS): 64
- bisphosphonate MICc ([8]; ZOL with FLC): 64
- bisphosphonate MICc ([8]; ZOL with ITR): 4
- bisphosphonate MICc ([8]; ZOL with KET): 64
- bisphosphonate MICc ([8]; ZOL with VOR): 32
- MIC / MEC (Pichia kudriavzevii): 256 µg/mL (≈ 941 µM)
